Results reported in ChEMBL document CHEMBL1153558, “In vitro antifungal susceptibilities of five species of sporothrix” (2008).
Values after ≈ are worked out from the molar mass of the structure shown. Numbered stars: 1 amine (or outer) side, 2 acyl side, 3 side chain; on linkers, the order of the positions; unused ones are H or OH. Bridge positions count the residues as written; N and C are the ends. Square brackets hold non-standard residues; d marks the D form. Peptide text beside a SMILES is read from it. * marks the point of attachment. hTyr(3S-OH,4S-OH,3'-OSO3H) = N[C@H](C(=O)O)[C@H](O)[C@@H](O)c1ccc(O)c(OS(=O)(=O)O)c1; Orn(4R-OH,5R-OH) = O=C([C@H](C[C@@H](O)[C@@H](O)N[*:3])N[*:1])[*:2]; Pro(3S-OH,4S-Me) = C[C@H]1CN[C@H](C(=O)O)[C@H]1O; X1 = CCCCCOc1ccc(-c2cc(-c3ccc(C(=O)*)cc3)no2)cc1; Gln(3R-OH) = NC(=O)C[C@@H](O)[C@H](N)C(=O)O; Hyp = O=C(O)[C@@H]1C[C@@H](O)CN1

What was measured:
Type in all cases: functional
[1] = system: Sporothrix; assay: Antifungal activity against Sporothrix mexicana after 72 hrs by microdilution method
[2] = system: Sporothrix schenckii; assay: Antifungal activity against Sporothrix schenckii after 72 hrs by microdilution method
[3] = system: Sporothrix albicans; assay: Antifungal activity against Sporothrix albicans after 72 hrs by microdilution method
[4] = system: Sporothrix; assay: Antifungal activity against Sporothrix brasiliensis after 72 hrs by microdilution method
[5] = system: Sporothrix globosa; assay: Antifungal activity against Sporothrix globosa after 72 hrs by microdilution method

Row | Structure (SMILES) | MIC [1] [mg/L] | MIC50 [2] [mg/L] | MIC90 [2] [mg/L] | MIC50 [3] [mg/L] | MIC90 [3] [mg/L] | MIC50 [4] [mg/L] | MIC90 [4] [mg/L] | MIC50 [5] [mg/L] | MIC90 [5] [mg/L] | MIC [2] [mg/L] | MIC [3] [mg/L] | MIC [4] [mg/L] | MIC [5] [mg/L]
1 | C[C@@H](n1cnc2cc(Cl)ccc2c1=O)[C@](O)(Cn1cncn1)c1ccc(F)cc1F [ALBACONAZOLE] | 32 (≈ 74.1 µM) | 16 (≈ 37.1 µM) | 32 (≈ 74.1 µM) | 16 (≈ 37.1 µM) | 32 (≈ 74.1 µM) | 1 (≈ 2.32 µM) | 4 (≈ 9.26 µM) | 16 (≈ 37.1 µM) | 16 (≈ 37.1 µM) | – | – | – | –
2 | C[C@@H]1[C@H](O)[C@@H](C)/C=C/C=C/C=C/C=C/C=C/C=C/C=C/[C@H](O[C@@H]2O[C@H](C)[C@@H](O)[C@H](N)[C@@H]2O)C[C@@H]2O[C@](O)(C[C@@H](O)C[C@@H](O)[C@H](O)CC[C@@H](O)C[C@@H](O)CC(=O)O[C@H]1C)C[C@H](O)[C@H]2C(=O)O [AMPHOTERICIN B] | 16 (≈ 17.3 µM) | 4 (≈ 4.33 µM) | 4 (≈ 4.33 µM) | 4 (≈ 4.33 µM) | 8 (≈ 8.66 µM) | 2 (≈ 2.16 µM) | 4 (≈ 4.33 µM) | 4 (≈ 4.33 µM) | 8 (≈ 8.66 µM) | – | – | – | –
3 | Clc1cc(Cl)c2c(c1)CCc1ccccc1C2n1ccnc1 (stereo not given) [EBERCONAZOLE] | 32 (≈ 97.2 µM) | 2 (≈ 6.07 µM) | 8 (≈ 24.3 µM) | 8 (≈ 24.3 µM) | 16 (≈ 48.6 µM) | 0.25 (≈ 0.759 µM) | 1 (≈ 3.04 µM) | 2 (≈ 6.07 µM) | 4 (≈ 12.1 µM) | – | – | – | –
4 | OC(Cn1cncn1)(Cn1cncn1)c1ccc(F)cc1F [FLUCONAZOLE] | 128 (≈ 418 µM) | 128 (≈ 418 µM) | 128 (≈ 418 µM) | 128 (≈ 418 µM) | 128 (≈ 418 µM) | 128 (≈ 418 µM) | 128 (≈ 418 µM) | 128 (≈ 418 µM) | 128 (≈ 418 µM) | 128 (≈ 418 µM) | 128 (≈ 418 µM) | 128 (≈ 418 µM) | 128 (≈ 418 µM)
5 | Nc1nc(=O)[nH]cc1F [FLUCYTOSINE] | 128 (≈ 992 µM) | 16 (≈ 124 µM) | 128 (≈ 992 µM) | 128 (≈ 992 µM) | 128 (≈ 992 µM) | 16 (≈ 124 µM) | 128 (≈ 992 µM) | 64 (≈ 496 µM) | 128 (≈ 992 µM) | – | 128 (≈ 992 µM) | – | –
6 | CCC(C)n1ncn(-c2ccc(N3CCN(c4ccc(OCC5COC(Cn6cncn6)(c6ccc(Cl)cc6Cl)O5)cc4)CC3)cc2)c1=O (stereo not given) [ITRACONAZOLE] | 32 (≈ 45.3 µM) | 4 (≈ 5.67 µM) | 32 (≈ 45.3 µM) | 32 (≈ 45.3 µM) | 32 (≈ 45.3 µM) | 0.5 (≈ 0.709 µM) | 1 (≈ 1.42 µM) | 32 (≈ 45.3 µM) | 32 (≈ 45.3 µM) | – | 32 (≈ 45.3 µM) | 0.5 (≈ 0.709 µM) | –
7 | CC(=O)N1CCN(c2ccc(OCC3COC(Cn4ccnc4)(c4ccc(Cl)cc4Cl)O3)cc2)CC1 (stereo not given) [KETOCONAZOLE] | 4 (≈ 7.53 µM) | 1 (≈ 1.88 µM) | 2 (≈ 3.76 µM) | 4 (≈ 7.53 µM) | 4 (≈ 7.53 µM) | 0.125 (≈ 0.235 µM) | 0.25 (≈ 0.47 µM) | 1 (≈ 1.88 µM) | 2 (≈ 3.76 µM) | – | – | – | –
8 | CCCCCOc1ccc(-c2cc(-c3ccc(C(=O)N[C@H]4C[C@@H](O)[C@@H](O)NC(=O)[C@@H]5[C@@H](O)[C@@H](C)CN5C(=O)[C@H]([C@H](O)CC(N)=O)NC(=O)[C@H]([C@H](O)[C@@H](O)c5ccc(O)c(OS(=O)(=O)O)c5)NC(=O)[C@@H]5C[C@@H](O)CN5C(=O)[C@H]([C@@H](C)O)NC4=O)cc3)no2)cc1 [MICAFUNGIN] (X1-[Orn(4R-OH,5R-OH)]T[Hyp][hTyr(3S-OH,4S-OH,3'-OSO3H)][Gln(3R-OH)][Pro(3S-OH,4S-Me)]; lactam 1-C) | 256 (≈ 202 µM) | 256 (≈ 202 µM) | 256 (≈ 202 µM) | 256 (≈ 202 µM) | 256 (≈ 202 µM) | 256 (≈ 202 µM) | 256 (≈ 202 µM) | 256 (≈ 202 µM) | 256 (≈ 202 µM) | 256 (≈ 202 µM) | 256 (≈ 202 µM) | 256 (≈ 202 µM) | 256 (≈ 202 µM)
9 | CC[C@@H]([C@H](C)O)n1ncn(-c2ccc(N3CCN(c4ccc(OC[C@@H]5CO[C@@](Cn6cncn6)(c6ccc(F)cc6F)C5)cc4)CC3)cc2)c1=O [POSACONAZOLE] | 32 (≈ 45.7 µM) | 1 (≈ 1.43 µM) | 8 (≈ 11.4 µM) | 2 (≈ 2.85 µM) | 2 (≈ 2.85 µM) | 0.5 (≈ 0.713 µM) | 1 (≈ 1.43 µM) | 2 (≈ 2.85 µM) | 8 (≈ 11.4 µM) | – | – | – | –
10 | C[C@@H](c1nc(-c2ccc(C#N)cc2)cs1)[C@](O)(Cn1cncn1)c1ccc(F)cc1F [RAVUCONAZOLE] | 32 (≈ 73.1 µM) | 8 (≈ 18.3 µM) | 16 (≈ 36.6 µM) | 16 (≈ 36.6 µM) | 32 (≈ 73.1 µM) | 0.5 (≈ 1.14 µM) | 1 (≈ 2.29 µM) | 8 (≈ 18.3 µM) | 16 (≈ 36.6 µM) | – | – | – | –
11 | CN(C/C=C/C#CC(C)(C)C)Cc1cccc2ccccc12 [TERBINAFINE] | 0.5 (≈ 1.72 µM) | 0.25 (≈ 0.858 µM) | 0.5 (≈ 1.72 µM) | 0.5 (≈ 1.72 µM) | 4 (≈ 13.7 µM) | 0.06 (≈ 0.206 µM) | 0.25 (≈ 0.858 µM) | 0.25 (≈ 0.858 µM) | 0.5 (≈ 1.72 µM) | – | – | 0.06 (≈ 0.206 µM) | –
12 | C[C@@H](c1ncncc1F)[C@](O)(Cn1cncn1)c1ccc(F)cc1F [VORICONAZOLE] | 16 (≈ 45.8 µM) | 32 (≈ 91.6 µM) | 32 (≈ 91.6 µM) | 8 (≈ 22.9 µM) | 32 (≈ 91.6 µM) | 4 (≈ 11.5 µM) | 8 (≈ 22.9 µM) | 32 (≈ 91.6 µM) | 32 (≈ 91.6 µM) | – | – | – | –
